Results taken from ChEMBL document CHEMBL3868599, “Strategy for designing selective α-l-rhamnosidase inhibitors: Synthesis and biological evaluation of l-DMDP cyclic isothioureas” (Bioorg Med Chem, 2017).

What was measured:
[1] = tested on: Penicillium decumbens; assay: Inhibition of Penicillium decumbens alpha-L-rhamnosidase at 1000 uM using p-nitrophenyl-glycoside as substrate by spectrophotometric method
[2] = tested on: Saccharomyces cerevisiae; assay: Inhibition of yeast alpha-glucosidase at 1000 uM using p-nitrophenyl-glycoside as substrate by spectrophotometric method
[3] = tested on: Prunus dulcis; assay: Inhibition of almond beta-glucosidase at 1000 uM using p-nitrophenyl-glycoside as substrate by spectrophotometric method
[4] = Inhibition of bovine liver beta-glucosidase using p-nitrophenyl-glycoside as substrate by spectrophotometric method; design: species or system Bos taurus
[5] = Inhibition of human lysosomal beta-glucosidase using 4-methylumbelliferyl-beta-D-glucopyranoside as substrate preincubated for 45 mins followed by substrate addition measured after 30 mins by fluorescence spectrophotometric method
[6] = tested on: Coffea; assay: Inhibition of coffee bean alpha-galactosidase at 1000 uM using p-nitrophenyl-glycoside as substrate by spectrophotometric method
[7] = tested on: Escherichia coli; assay: Inhibition of Escherichia coli beta-galactosidase at 1000 uM using p-nitrophenyl-glycoside as substrate by spectrophotometric method
[8] = target: T1, Alpha-mannosidase (Canavalia ensiformis) (UniProt C0HJB3); assay: Inhibition of Jack bean alpha-mannosidase at 1000 uM preincubated for 45 mins followed by addition of p-nitrophenyl-glycoside as substrate measured after 30 mins by fluorescence spectrophometry
T1 sequence (whole entry): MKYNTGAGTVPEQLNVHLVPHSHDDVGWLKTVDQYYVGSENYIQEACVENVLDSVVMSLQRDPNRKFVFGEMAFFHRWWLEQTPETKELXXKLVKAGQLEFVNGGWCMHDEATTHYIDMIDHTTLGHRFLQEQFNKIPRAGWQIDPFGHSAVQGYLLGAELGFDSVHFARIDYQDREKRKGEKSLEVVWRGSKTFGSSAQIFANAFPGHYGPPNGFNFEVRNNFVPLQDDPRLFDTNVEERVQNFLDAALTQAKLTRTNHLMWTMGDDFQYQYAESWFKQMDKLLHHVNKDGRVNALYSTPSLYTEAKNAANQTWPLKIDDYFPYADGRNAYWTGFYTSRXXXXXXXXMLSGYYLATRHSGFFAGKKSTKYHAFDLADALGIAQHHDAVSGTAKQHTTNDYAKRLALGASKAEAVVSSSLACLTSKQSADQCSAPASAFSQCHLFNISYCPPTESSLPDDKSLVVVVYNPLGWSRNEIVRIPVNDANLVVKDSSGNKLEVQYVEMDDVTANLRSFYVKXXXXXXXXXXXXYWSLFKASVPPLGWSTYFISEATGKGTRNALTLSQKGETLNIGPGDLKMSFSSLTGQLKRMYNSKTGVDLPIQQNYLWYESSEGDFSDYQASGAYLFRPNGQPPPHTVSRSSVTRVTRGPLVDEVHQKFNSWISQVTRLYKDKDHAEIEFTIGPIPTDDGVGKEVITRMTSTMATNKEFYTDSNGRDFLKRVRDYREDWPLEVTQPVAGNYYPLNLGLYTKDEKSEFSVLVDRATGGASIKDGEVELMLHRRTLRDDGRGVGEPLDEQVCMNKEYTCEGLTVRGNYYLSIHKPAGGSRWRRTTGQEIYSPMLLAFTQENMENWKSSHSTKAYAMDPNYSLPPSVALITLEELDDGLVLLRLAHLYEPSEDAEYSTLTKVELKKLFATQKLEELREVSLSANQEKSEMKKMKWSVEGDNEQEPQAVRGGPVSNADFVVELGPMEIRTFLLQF

[9] = tested on: Helix pomatia; assay: Inhibition of Helix pomatia beta-mannosidase at 1000 uM using p-nitrophenyl-glycoside as substrate by spectrophotometric method
[10] = tested on: Aspergillus niger; assay: Inhibition of Aspergillus niger amyloglucosidase assessed as D-glucose level at 1000 uM using maltose as substrate measured after 10 to 30 mins
[11] = tested on: Oryza sativa; assay: Inhibition of rice alpha-glucosidase at 1000 uM using p-nitrophenyl-glycoside as substrate by spectrophotometric method
[12] = organism: Rattus norvegicus; assay: Inhibition of rat intestinal maltase assessed as D-glucose level at 1000 uM using maltose as substrate measured after 10 to 30 mins
[13] = target: T2, Beta-galactosidase (Bos taurus) (UniProt Q58D55); assay: Inhibition of bovine liver beta-galactosidase at 1000 uM using p-nitrophenyl-glycoside as substrate by spectrophotometric method
T2 sequence (whole entry): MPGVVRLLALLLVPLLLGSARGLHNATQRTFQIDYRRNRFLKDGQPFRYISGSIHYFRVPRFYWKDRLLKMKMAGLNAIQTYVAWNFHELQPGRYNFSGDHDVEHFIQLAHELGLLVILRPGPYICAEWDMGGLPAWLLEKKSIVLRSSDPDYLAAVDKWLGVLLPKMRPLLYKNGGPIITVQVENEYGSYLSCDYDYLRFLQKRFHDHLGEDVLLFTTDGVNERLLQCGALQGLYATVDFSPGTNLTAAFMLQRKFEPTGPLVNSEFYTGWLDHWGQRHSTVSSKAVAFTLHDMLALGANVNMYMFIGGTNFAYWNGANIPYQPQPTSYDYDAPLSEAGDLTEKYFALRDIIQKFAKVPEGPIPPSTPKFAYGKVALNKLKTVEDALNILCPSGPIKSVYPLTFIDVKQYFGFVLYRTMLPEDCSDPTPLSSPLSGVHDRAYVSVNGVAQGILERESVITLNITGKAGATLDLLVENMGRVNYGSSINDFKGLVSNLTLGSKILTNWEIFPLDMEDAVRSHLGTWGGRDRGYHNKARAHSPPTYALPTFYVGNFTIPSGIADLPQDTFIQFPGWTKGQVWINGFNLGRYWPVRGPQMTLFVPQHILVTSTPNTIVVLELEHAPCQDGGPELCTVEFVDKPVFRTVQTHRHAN

[14] = target: T3, Tissue alpha-L-fucosidase (Bos taurus) (UniProt Q2KIM0); assay: Inhibition of bovine kidney alpha-L-fucosidase at 1000 uM using p-nitrophenyl-glycoside as substrate by spectrophotometric method
T3 sequence (whole entry): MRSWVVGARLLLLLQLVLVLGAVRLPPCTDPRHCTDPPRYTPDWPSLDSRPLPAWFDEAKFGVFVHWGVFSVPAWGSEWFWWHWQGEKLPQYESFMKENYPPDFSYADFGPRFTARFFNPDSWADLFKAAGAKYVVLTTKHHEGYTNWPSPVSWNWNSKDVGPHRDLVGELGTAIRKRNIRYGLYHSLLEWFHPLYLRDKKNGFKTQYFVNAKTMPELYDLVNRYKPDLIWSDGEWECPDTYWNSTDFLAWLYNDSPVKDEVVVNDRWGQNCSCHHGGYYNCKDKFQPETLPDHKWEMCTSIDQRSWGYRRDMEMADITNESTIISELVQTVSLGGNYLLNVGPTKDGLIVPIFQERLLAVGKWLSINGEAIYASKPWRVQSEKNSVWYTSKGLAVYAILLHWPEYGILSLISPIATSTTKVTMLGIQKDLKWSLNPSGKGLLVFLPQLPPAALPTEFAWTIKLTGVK

[15] = target: T4, Uncharacterized protein (Sus scrofa) (UniProt I3LIR5); assay: Inhibition of porcine kidney trehalase assessed as D-glucose level at 1000 uM using maltose as substrate measured after 10 to 30 mins
T4 sequence (whole entry): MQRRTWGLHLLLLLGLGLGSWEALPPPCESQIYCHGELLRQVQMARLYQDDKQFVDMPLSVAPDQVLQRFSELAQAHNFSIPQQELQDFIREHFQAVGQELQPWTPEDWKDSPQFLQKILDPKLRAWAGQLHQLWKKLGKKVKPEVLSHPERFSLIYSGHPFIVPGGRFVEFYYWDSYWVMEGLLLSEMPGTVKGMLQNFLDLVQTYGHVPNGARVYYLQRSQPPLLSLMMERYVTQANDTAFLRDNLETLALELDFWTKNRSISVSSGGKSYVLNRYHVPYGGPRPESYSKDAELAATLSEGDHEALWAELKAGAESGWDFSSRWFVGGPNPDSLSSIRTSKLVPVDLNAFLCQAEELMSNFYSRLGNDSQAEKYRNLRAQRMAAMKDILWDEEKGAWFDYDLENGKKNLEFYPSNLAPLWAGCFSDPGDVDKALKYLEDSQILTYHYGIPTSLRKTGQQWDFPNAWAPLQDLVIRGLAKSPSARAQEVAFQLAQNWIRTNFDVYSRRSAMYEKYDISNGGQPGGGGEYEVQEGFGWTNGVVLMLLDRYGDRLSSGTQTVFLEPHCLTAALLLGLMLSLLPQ

[16] = tested on: Escherichia coli; assay: Inhibition of Escherichia coli beta-glucuronidase at 1000 uM using p-nitrophenyl-glycoside as substrate by spectrophotometric method
[17] = Inhibition of Penicillium decumbens alpha-L-rhamnosidase using p-nitrophenyl-glycoside as substrate by spectrophotometric method
[18] = Competitive inhibition of Penicillium decumbens alpha-L-rhamnosidase using p-nitrophenyl-glycoside as substrate by Lineweaver-Burk plot analysis
[19] = tested on: Penicillium decumbens; assay: Potency index, ratio of 5-epi-deoxyrhamnojirimycin IC50 to compound IC50 for Penicillium decumbens alpha-L-rhamnosidase
[20] = organism: Bos taurus; assay: Inhibition of bovine liver beta-glucosidase at 1000 uM using p-nitrophenyl-glycoside as substrate by spectrophotometric method
[21] = organism: Homo sapiens; assay: Inhibition of human lysosomal beta-glucosidase at 1000 uM using 4-methylumbelliferyl-beta-D-glucopyranoside as substrate preincubated for 45 mins followed by substrate addition measured after 30 mins by fluorescence spectrophotometric method
[22] = Inhibition of Penicillium decumbens alpha-L-rhamnosidase assessed as reduction in hydrolysis of p-nitrophenyl-a-L-rhamnopyranoside
[23] = target: T5, Beta-galactosidase (Bos taurus, UniProt Q58D55); assay: Inhibition of bovine liver beta-galactosidase using p-nitrophenyl-glycoside as substrate by spectrophotometric method
T5 sequence (Q58D55 whole entry): T2 sequence (whole entry)

[24] = Inhibition of rice alpha-glucosidase using p-nitrophenyl-glycoside as substrate by spectrophotometric method; design: species or system Oryza sativa
[25] = Inhibition of maltase in rat small intestinal brush border membranes assessed as D-glucose level using maltose as substrate measured after 10 to 30 mins

| Compound | inhibition [1] | inhibition [2] | inhibition [3] | IC50 [4] | inhibition [6] | inhibition [7] | inhibition [8] | inhibition [9] | inhibition [10] | inhibition [11] | inhibition [12] | inhibition [13] | inhibition [14] | inhibition [15] | inhibition [16] | IC50 [17] | inhibition [20] | inhibition [21] | IC50 [23] | IC50 [24] | also measured |
| --- | --- | --- | --- | --- | --- | --- | --- | --- | --- | --- | --- | --- | --- | --- | --- | --- | --- | --- | --- | --- | --- |
| CCCCCCCC/N=C1/SC[C@@H]2[C@@H](O)[C@H](O)[C@@H](CO)N12 | < 50% | < 50% | < 50% | 63 µM | < 50% | < 50% | < 50% | < 50% | < 50% | < 50% | < 50% | < 50% | < 50% | < 50% | < 50% |  |  |  |  |  | IC50 [5]: 2.4 µM |
| OC[C@H]1[C@H](O)[C@@H](O)[C@@H]2CS/C(=N/Cc3ccc(Cl)c(Cl)c3)N12 |  |  |  |  |  |  |  |  |  |  |  |  |  |  |  | 0.23 µM |  |  |  |  | Ki [18]: 0.11 µM; Ratio IC50 [19]: 46 |
| C[C@H](O)[C@H]1[C@@H](O)[C@@H](O)c2nnnn21 |  |  |  |  |  |  |  |  |  |  |  |  |  |  |  |  |  |  |  |  | IC50 [22]: 70 µM |
| CCCCCCCCNC(=S)N1[C@@H](CO)[C@H](O)[C@@H](O)[C@@H]1CO | < 50% |  | < 50% | 178 µM |  |  |  |  | < 50% |  |  |  | < 50% | < 50% | < 50% |  |  | < 50% | 266 µM | 1000 µM | IC50 [25]: 1000 µM |

Continued, in another order:

| inhibition [1] | inhibition [2] | inhibition [3] | IC50 [4] | inhibition [6] | inhibition [7] | inhibition [8] | inhibition [9] | inhibition [10] | inhibition [11] | inhibition [12] | inhibition [13] | inhibition [14] | inhibition [15] | inhibition [16] | IC50 [17] | inhibition [20] | inhibition [21] | IC50 [23] | IC50 [24] | Compound | also measured |
| --- | --- | --- | --- | --- | --- | --- | --- | --- | --- | --- | --- | --- | --- | --- | --- | --- | --- | --- | --- | --- | --- |
|  | < 50% | < 50% |  | < 50% | < 50% | < 50% | < 50% | < 50% | < 50% | < 50% | < 50% | < 50% | < 50% | < 50% | 1.6 µM | < 50% | < 50% |  |  | CCCCCCCC/N=C1/SC[C@H]2[C@H](O)[C@@H](O)[C@H](CO)N12 |  |
|  |  | < 50% |  |  |  |  |  | < 50% |  |  |  | < 50% | < 50% | < 50% | 5.3 µM | < 50% | < 50% | 599 µM | 418 µM | CCCCCC/N=C1/SC[C@H]2[C@H](O)[C@@H](O)[C@H](CO)N12 | IC50 [25]: 799 µM |
